Values of other authors, collected in article PMC7984856 (European journal of medicinal chemistry, 2021).

System: catalepsy in rats
Settings: previous in vivo behavioral studies, ref [29]

## Fc1ccc(CCCCN2CCN(c3ccccn3)CC2)cc1 [Compound 2, 1-(4-(4-fluorophenyl)butyl)-4-(pyridin-2-yl)piperazine]
  propensity to cause catalepsy: low propensity to cause catalepsy
